The source of these data is PubChem BioAssay (NCI).

Where “and” joins values, the source holds several entries; their conditions need not be identical. Equal entries are not always repeated.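 Values below derive from 48-hour exposures of cells grown in 96-well plates, with endpoints linearly interpolated between the two concentrations bracketing the appropriate inhibition level. GI50 marks 50% less growth. TGI denotes the concentration required for complete inhibition of growth.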

Among the test systems are CAKI-1 renal; HCT-15 colon; HOP-92 NSCLC; MALME-3M melanoma; NCI/ADR-RES ovarian; OVCAR-8 ovarian; RXF 393 renal; SF-539 CNS; SK-MEL-28 melanoma; SK-MEL-5 melanoma; HS 578T breast; MDA-MB-231 breast; SR leukemia; TK-10 renal.
What all share (experiment): NCI-60 cell line screen, 48 h

`CN1C(=O)c2ccccc2NC(=O)c2cnn(C)c21`: the TGI in the assay with CAKI-1 renal, in the assay with HCT-15 colon, with HOP-92 NSCLC, in the assay on MALME-3M melanoma, with NCI/ADR-RES ovarian and in the assay with OVCAR-8 ovarian was above 100 µM in each case. Further, the TGI in the assay on RXF 393 renal, in the assay on SF-539 CNS, in the assay with SK-MEL-28 melanoma and in the assay on SK-MEL-5 melanoma was above 100 µM in each case.
For `COCO[C@@H]1C[C@H]2C(O)Nc3ccccc3C(=O)N2C1` (some centres undefined), the TGI in the assay with CAKI-1 renal, with HCT-15 colon, in the assay on HOP-92 NSCLC, in the assay with HS 578T breast, in the assay on MDA-MB-231 breast and in the assay with NCI/ADR-RES ovarian was above 100 µM each time. Also, the TGI with OVCAR-8 ovarian, in the assay on RXF 393 renal, in the assay on SF-539 CNS, in the assay on SK-MEL-28 melanoma, in the assay on SK-MEL-5 melanoma and in the assay on SR leukemia was above 100 µM each time. For the same molecule, the TGI in the assay on TK-10 renal was above 100 µM.
In the case of `CN(C)c1ccc(/C=C2/SC(=S)NC2=O)cc1`, the TGI in the assay on CAKI-1 renal, in the assay on HCT-15 colon, in the assay with HOP-92 NSCLC, in the assay with HS 578T breast, in the assay on MALME-3M melanoma and in the assay on MDA-MB-231 breast was above 100 µM throughout. Moreover, the TGI in the assay on NCI/ADR-RES ovarian, with OVCAR-8 ovarian, in the assay with RXF 393 renal, with SF-539 CNS, in the assay on SK-MEL-28 melanoma and with SK-MEL-5 melanoma was above 100 µM each time. The TGI with SR leukemia was above 100 µM; in the assay with TK-10 renal it was 53 µM.
Consider `N#C[S-].[Nd+3].c1cnc2c(c1)ccc1cccnc12.c1cnc2c(c1)ccc1cccnc12.c1cnc2c(c1)ccc1cccnc12`, for which the TGI in the assay on CAKI-1 renal came to 15.1 µM; in the assay with HOP-92 NSCLC, 17.2 µM; with MALME-3M melanoma, 9.54 µM; with SF-539 CNS, 14 µM; in the assay on SK-MEL-28 melanoma it was 32.1 µM; in the assay with SK-MEL-5 melanoma, 14.1 µM. Moreover, the TGI with SR leukemia is above 100 µM; with TK-10 renal, 22 µM.
Regarding `C=CCc1cc(-c2cc(CC=C)c(O)c(CN(CCCl)CCCl)c2)cc(CN(CCCl)CCCl)c1O`, the TGI with CAKI-1 renal is 34.6 µM; with HCT-15 colon, 38 µM; in the assay with HOP-92 NSCLC, 32.2 µM; in the assay on HS 578T breast, above 100 µM; with MALME-3M melanoma, 42.6 µM; in the assay with MDA-MB-231 breast it was 45.2 µM. For the same molecule, the TGI in the assay on NCI/ADR-RES ovarian is 78.4 µM; in the assay with OVCAR-8 ovarian, 74.1 µM; in the assay with RXF 393 renal, 35.8 µM; in the assay on SF-539 CNS it was 36.3 µM; with SK-MEL-28 melanoma, 40.2 µM; with SK-MEL-5 melanoma it was 32.7 µM. Moreover, the TGI in the assay on SR leukemia was above 100 µM; in the assay on TK-10 renal, 38.8 µM.
For the molecule `CC1=NN(c2cccc(Cl)c2)C2(SCC(=O)N2c2nc3ccccc3s2)/C1=C\c1ccc(Cl)cc1` (centres undefined), the TGI in the assay with CAKI-1 renal was 39.2 µM; with HCT-15 colon it was 38.1 µM; in the assay with HOP-92 NSCLC it was 28.3 µM; in the assay on HS 578T breast, 73.6 µM; with MDA-MB-231 breast, 72 µM; in the assay with NCI/ADR-RES ovarian it was above 100 µM. For the same molecule, the TGI was determined as 40.7 µM with OVCAR-8 ovarian; 38.4 µM with RXF 393 renal; 89.6 µM in the assay with SF-539 CNS; 72.4 µM in the assay on SK-MEL-28 melanoma; 30.8 µM in the assay on SK-MEL-5 melanoma; 15.9 µM with SR leukemia. Also, in the assay with TK-10 renal, the TGI was above 100 µM.
For `O=C1C=CC2(O[C@H](c3ccccc3)[C@@H](c3ccccc3)O2)C(SC(=O)c2ccccc2)C1` (some centres undefined), the TGI with CAKI-1 renal was found to be 6.53 µM; in the assay on HCT-15 colon, 2.2 µM; in the assay on HS 578T breast it was 5.04 µM; in the assay on MALME-3M melanoma, 6.54 µM; with MDA-MB-231 breast, 18 µM; with NCI/ADR-RES ovarian it was 3.22 µM. Moreover, the TGI is 0.516 µM with OVCAR-8 ovarian; 0.726 µM with RXF 393 renal; 3.29 µM with SF-539 CNS; 3.55 µM in the assay on SK-MEL-28 melanoma; 2.87 µM with SK-MEL-5 melanoma; above 100 µM in the assay on SR leukemia. This molecule yielded a TGI in the assay with TK-10 renal of 6.64 µM.
On to `O=c1[nH]c(Nc2ccc(F)c(Cl)c2)nc2nc[nH]c12`, for which the TGI in the assay with CAKI-1 renal, with HCT-15 colon, in the assay on HOP-92 NSCLC, in the assay with HS 578T breast, with MALME-3M melanoma and in the assay with MDA-MB-231 breast was above 100 µM each time. Further, the TGI with NCI/ADR-RES ovarian, in the assay with OVCAR-8 ovarian, in the assay with SF-539 CNS, in the assay with SK-MEL-28 melanoma, in the assay on SK-MEL-5 melanoma and in the assay on TK-10 renal was above 100 µM throughout.
With `CC1=C(C)C(=O)O[C@@H]([C@](C)(O)[C@]2(O)CC[C@@]3(O)[C@@H]4C[C@H]5O[C@]56[C@@H](O)C=CC(=O)[C@]6(C)[C@H]4CC[C@]23C)C1`, the GI50 with HCT-15 colon is 0.169 µM; with MALME-3M melanoma, 0.411 µM; in the assay on NCI/ADR-RES ovarian, 9.65 µM and 6.24 µM; with OVCAR-8 ovarian, 0.155 µM; with RXF 393 renal it was 0.21 µM and 0.0646 µM; in the assay on SK-MEL-28 melanoma, 0.606 µM and 0.228 µM. For the same molecule, the TGI was 2.87 µM and 3.02 µM with HCT-15 colon; 0.345 µM in the assay with HOP-92 NSCLC; 2.27 µM and 2.66 µM in the assay with MALME-3M melanoma; 131 µM and 57.5 µM in the assay on NCI/ADR-RES ovarian; 4.2 µM in the assay with OVCAR-8 ovarian; 0.575 µM and 0.516 µM in the assay with RXF 393 renal. For the same molecule, the TGI in the assay on SF-539 CNS was 6.13 µM; in the assay on SK-MEL-28 melanoma, 5.86 µM and 3.44 µM; with SK-MEL-5 melanoma, 2.18 µM.
As for `Cc1ccc(CC(=O)Nc2ccc(NC(=O)/C=C/NC(=O)/C=C/c3ccc(-c4ccccc4)cc3)cc2C(=O)c2ccccc2)cc1`, the TGI is 11.3 µM in the assay with CAKI-1 renal; 9.53 µM in the assay with HCT-15 colon; 3.74 µM in the assay with HS 578T breast; 11.5 µM in the assay with MALME-3M melanoma; 5.65 µM in the assay on MDA-MB-231 breast; above 100 µM in the assay on NCI/ADR-RES ovarian. In addition, the TGI with OVCAR-8 ovarian was found to be 2.21 µM; in the assay on RXF 393 renal it was 3.52 µM; in the assay on SF-539 CNS, 3.67 µM; in the assay on SK-MEL-28 melanoma it was 9 µM; in the assay with SK-MEL-5 melanoma it was 5.14 µM; with TK-10 renal it was 8.72 µM.
For the molecule `Cc1cc(NC(=S)Nc2ccccc2)c(NC(=S)Nc2ccccc2)cc1C`, the TGI in the assay with CAKI-1 renal was above 89.6 µM; in the assay on HCT-15 colon, above 100 µM; in the assay with HOP-92 NSCLC, above 100 µM; with MALME-3M melanoma, above 100 µM; in the assay on NCI/ADR-RES ovarian, 28.9 µM; in the assay with OVCAR-8 ovarian, above 100 µM. Further, the TGI in the assay on RXF 393 renal is above 80.8 µM; with SF-539 CNS, 50.6 µM; in the assay with SK-MEL-28 melanoma, above 100 µM; in the assay on SK-MEL-5 melanoma, above 100 µM.
